Measurements from a compilation of properties of binary mixtures (doi:10.1016/j.molliq.2019.111804).

Experiment: xn = mol fraction of the nth substance listed
Settings: 101 kPa

`CO` + CCCC[n+]1ccn(C)c1.[Cl-] showed an electrical conductivity (293.15 K, x2 = 0) of 0.003 S/m, an electrical conductivity (303.15 K, x2 = 0) of 0.004 S/m and an electrical conductivity (313.15 K, x2 = 0) of 0.007 S/m. For the same compound, the electrical conductivity (323.15 K, x2 = 0) was 0.011 S/m.
`CCCC[n+]1ccn(C)c1.[Cl-]` + CO showed an electrical conductivity (293.15 K, x1 = 0.0011) of 0.18 S/m, an electrical conductivity (293.15 K, x1 = 0.0022) of 0.34 S/m and an electrical conductivity (293.15 K, x1 = 0.0035) of 0.48 S/m. For the same compound, the electrical conductivity (293.15 K, x1 = 0.0045) was 0.6 S/m, the electrical conductivity (293.15 K, x1 = 0.0056) was 0.72 S/m and the electrical conductivity (293.15 K, x1 = 0.0068) was 0.83 S/m. The electrical conductivity (293.15 K, x1 = 0.0092) was 1.02 S/m, the electrical conductivity (293.15 K, x1 = 0.0104) was 1.13 S/m and the electrical conductivity (303.15 K, x1 = 0.0011) was 0.2 S/m. For the same compound, the electrical conductivity (303.15 K, x1 = 0.0022) was 0.38 S/m, the electrical conductivity (303.15 K, x1 = 0.0035) was 0.53 S/m and the electrical conductivity (303.15 K, x1 = 0.0056) was 0.79 S/m. It also gave an electrical conductivity (303.15 K, x1 = 0.0068) of 0.9 S/m, an electrical conductivity (303.15 K, x1 = 0.008) of 1.01 S/m and an electrical conductivity (303.15 K, x1 = 0.0092) of 1.11 S/m. For the same compound, the electrical conductivity (303.15 K, x1 = 0.0104) was 1.22 S/m, the electrical conductivity (313.15 K, x1 = 0.0011) was 0.23 S/m and the electrical conductivity (313.15 K, x1 = 0.0045) was 0.75 S/m. It also gave an electrical conductivity (313.15 K, x1 = 0.0056) of 0.87 S/m, an electrical conductivity (313.15 K, x1 = 0.0068) of 1.01 S/m and an electrical conductivity (313.15 K, x1 = 0.008) of 1.12 S/m. The electrical conductivity (313.15 K, x1 = 0.0092) was 1.23 S/m, the electrical conductivity (313.15 K, x1 = 0.0104) was 1.33 S/m and the electrical conductivity (323.15 K, x1 = 0.0011) was 0.26 S/m. For the same compound, the electrical conductivity (323.15 K, x1 = 0.0022) was 0.48 S/m, the electrical conductivity (323.15 K, x1 = 0.0035) was 0.67 S/m and the electrical conductivity (323.15 K, x1 = 0.0056) was 0.96 S/m. The electrical conductivity (323.15 K, x1 = 0.0068) was 1.1 S/m, the electrical conductivity (323.15 K, x1 = 0.008) was 1.24 S/m and the electrical conductivity (323.15 K, x1 = 0.0092) was 1.35 S/m. The electrical conductivity (323.15 K, x1 = 0.0104) was 1.45 S/m.
